Entries after “also recorded” stand apart in the source; their conditions may differ.
Assays:
C. striatum (ATCC 43751) = assay: Kirby-Bauer disk diffusion susceptibility test; format: cell-based, Corynebacterium striatum; conditions: for Intensity of inhibition of the growth of C. striatum (CS): Blood BHI agar plate, 37° C., 24 hours
Excerpt: (§1) C. striatum and Staph. epidermidis are among the most prevalent bacteria that comprise the human cutaneous microbiota. […] The purpose of this segment was to examine whether formulations arising out of the studies reported in the prior sections that favor the growth and metabolism of Staph. epidermidis as a desirable skin entity that can inhibit the growth of C. striatum, a less desirable entity, and do so when both microorganisms are present initially at the same levels. In this regard, an adaptation of the Kirby-Bauer disk diffusion susceptibility test appeared to be relevant for such determination.
(§2) Here we have grown less than desirable C. striatum and highly desirable Staph. epidermidis, alone and in combination, under a variety of substrate conditions to determine, if the latter micro-organism could be selected over C. striatum and thereby be used as a means of reducing the presence of less desirable odor-producing C. striatum.
(§3) Compositions indicated as possible suppressants of C. striatum and/or enhancers of Staph. epidermidis were based on the prior studies above and for convenience of presentation were categorized as possible active test ingredients and then formulae and mixtures in which they were tested. Accordingly, the total number of compositions tested was eight. Careful attention was paid to sterility throughout in the preparation and handling of the compounds and compositions utilized herein.
(§4) Each of these formulae were prepared at 4 different concentrations: original as in (b), and 1.5, 2.5 and 7.5 times the original concentration. Again, all formulae were prepared under aseptic conditions.
To make compositions 1.5 times the original concentration listed above, formulae 7.5 times the original concentrations were diluted a factor of 5 with sterile distilled water. To make compositions 2.5 times the original concentration listed above, formulae 7.5 times the original concentrations were diluted three-fold with sterile distilled water. To summarize: a total of 3 ingredients, 2 formulae and 2 mixtures were tested. A total of 20 disks were prepared for tests of susceptibility to each bacterial sample and these are outlined in Table 5.2 below:
A TB syringe with a 25-27 G sterile needle was used to help break up the remains of any pellets. […] Plating Procedures • Five bacterial samples of C. striatum and Staph. epidermidis were plated on Blood BHI agar and CHROMagar plates, respectively. • 100 μl of each bacterial sample was inoculated on Blood BHI agar plates by using sterile glass bars and a turning table to facilitate each bacterial sample being spread evenly on each of the agar plates. • Each spread bacterial suspension was allowed to dry on inoculated plates for five minutes. • Paper disks were immersed, respectively, with the above 3 ingredients, 2 formulae and 2 mixtures; absorptions were saturated. • Four disks were placed on each plate with sterile forceps. • Incubated plates within 15 minutes after applying the disks to ensure test was under standardized conditions, where diffusion of the ingredients and formulae and bacterial growth commence at approximately the same time. Plates were incubated at 37° C. for 24 hours. Interpretation of Results
Each strain was determined as resistant, intermediate, or susceptible to the ingredients, formulae and mixtures tested. After 24 hours of incubation at 37° C., the diameter of the zone of growth inhibition around each disk was measured to the nearest whole mm. Plates were carefully examined for well-developed colonies within the zone of inhibition.

[1] = tested on: C. striatum, Staph. epidermidis and a mixture of the two; assay: Growth (colony counts on BHI agar) during 72 hour incubation with CIL, phenylalanine, zinc carbonate with or without arginine bicarbonate; format: cell-based
Experimental: The bacterial sediments produced upon centrifugation and decantation of the supernatants were stirred and made into a uniform suspension. C. striatum and Staph. epidermidis were mixed with each of C. striatum and Staph. epidermidis at 25% (v/v).
Zinc carbonate was autoclaved and suspended in sterile distilled water. All other stock solutions were sterilized by microbial filtration (Nylon, Sterile filter, pore size […], Fisher Scientific, Fairlawn, N.J. USA).
Difco BHI agar was poured into petri dish plates under sterile conditions and pre-incubated at 37° C. for 24 hours before use to ensure sterility.
The experimental and negative control samples were prepared as follows:
The final concentrations of the bacteria, C. striatum and Staph. epidermidis were each 8.3% (v/v) and the mixture of C. striatum and Staph. epidermidis were 4.15% (v/v) each.
Serial dilution of each of the samples between 10^0 and 10^10 was made. An aliquot of 100 μl from each 10^0 to 10^10 dilution was inoculated onto BHI agar plates. […] Bacterial growth was regularly checked. This was the initial test before the incubation was started.
Four successive diluted samples were selected and grown to proper densities of bacterial colonies on the agar plates; for example, 10^4 to 10^7 were appropriate dilutions for all samples in the instant experiment. Incubation of all samples (experimental and control) were continued at 37° C. for 24, 48 or 72 hours; 100 μl of each sample were taken and chosen at 4 consequent dilutions and inoculated on BHI agar plates for incubation for 24, 48 and 72 hours, respectively. Plating on BHI agar plates and incubation at 37° C. for 24 to 48 hours were carried out and bacterial growth on the BHI agar plates were checked.
The number of bacterial colonies on each plate was assessed. The plates inoculated with the mixture of C. striatum and Staph. epidermidis (i.e., Samples I and IV in the Table of Media compositions above) were counted and the number of colonies of C. striatum and Staph. epidermidis were determined from the photos of the plates.

[2] = tested on: Staph. epidermidis (ATCC 12228); assay: Kirby-Bauer disk diffusion susceptibility test; format: cell-based, Staphylococcus epidermidis
Excerpt: as §1, §2, §3, §4
To make compositions 1.5 times the original concentration listed above, formulae 7.5 times the original concentrations were diluted a factor of 5 with sterile distilled water. […]
Each strain was determined as resistant, intermediate, or susceptible to the ingredients, formulae and mixtures tested. After 24 hours of incubation at 37° C., the diameter of the zone of growth inhibition around each disk was measured to the nearest whole mm. […]

[3] = tested on: mixture of C. striatum and Staph. epidermidis in the ratio of 1 to 1; assay: Zinc carbonate / arginine bicarbonate on odor and pH, CIL and phenylalanine medium; format: cell-based; conditions: for pH after incubation: arginine bicarbonate with zinc carbonate
[4] = tested on: C. striatum, Staph. epidermidis or a 1:1 mixture thereof; conditions: for Sulfurous odor and Eh: zinc acetate, CIL and either arginine or arginine bicarbonate, no phenylalanine
Excerpt: The pH of the medium with each of the different zinc salts needed some adjustment, which was done with 1 M HCl or 1 M NaOH depending upon the pH of the stock solutions of each zinc salt employed.

[5] = tested on: pure cultures of microorganisms resident on human axillary skin; conditions: for Odor released on catabolism: bacteria that catabolized the substrate
Experimental: Pure cultures of the numerically most prominent microorganisms normally resident on human axillary skin (see Table 1) were surveyed for their effects on (i) pH, (ii) Eh, (iii) ability to generate malodor and (iv) ability to generate hydrogen peroxide. Four hour incubation experiments were conducted, in which each of a wide range of carbohydrate and amino acid substrates (see Table 1) were surveyed for malodor production and related changes in pH and Eh thereto.
Each microorganism was recovered from its frozen state at −70° C. and grown at 37° C. in 10 ml of appropriate and respective culture media for a period between 24 and 48 hours (see Table 1). Incubations were carried out to middle and late exponential stages of bacterial growth under the incubation conditions indicated in Table 1. A 1.5 ml inoculum was transferred therefrom to polypropylene bottles containing 150 ml of the initial growth medium. This was then incubated at 37° C. for 24 to 48 hours. Bacteria were harvested by centrifugation (DuPone, Sorvall, Newtown, Conn.) at 10,000 g and 4° C. for 20 min. […] The sediment was then washed with sterile distilled water to remove residual growth medium. This was done by centrifuging the bacterial sediment three times at 1,740 g for 15 min at 4° C.
Each pure culture was pre-incubated at 37° C. at pH 7.0 to exhaust or reduce any stored carbohydrate and other carbon/energy sources acquired during growth in culture.
Both of these electrodes were connected to a second pH meter (pH M26 Radiometer Copenhagen NV, Denmark) and used here as a millivoltmeter. For the Eh measurements, when the Eh electrode was immersed in an incubation mixture, each Eh reading was recorded after allowing several seconds for each reading to stabilize. The Eh value was related to that of the hydrogen electrode by adding to each reading the difference between the E0 value for the Red Rod reference element-mercury and hydrogen electrodes—i.e. 270 my at 25° C.
At each time point, the odor was determined organoleptically by immersing a solid glass rod into each incubation mixture, stirring gently 3 times and then removing and carefully smelling the rod after 5 seconds. The intensity of the odor was assessed on a 0 to 4 numerical scale (0—no odor, 1—mild odor, 2—moderate odor, 3—strong odor, and 4—very strong odor).

[6] = 3% and 5%, Blood BHI agar plates
[7] = concentration 5%, paper disk 12.7 mm
[8] = zinc compound alone, levels tested (1%, 3%, 5%)

## N=C(N)NCCC[C@H](N)C(=O)O.O=C(O)O [Arginine bicarbonate, arginine bicarbonate]
C. striatum (ATCC 43751); at either 1% or 5% levels
  Sensitivity of C. striatum (in words): neither C. striatum nor Staph. epidermidis was susceptible
[1]; 12 mM zinc carbonate, CIL, phenylalanine, with versus without 12 mM arginine bicarbonate, 37° C., 72 hours
  Decrease of number of colonies: without arginine bicarbonate decreased sooner
[1]; media with arginine bicarbonate, 48 and 72 hours
  Colonies found in the mixture: Only colonies of Staph. epidermidis were discovered
[1]; media with arginine bicarbonate, 24 hours, 65% at 0 hours
  Staph. epidermidis share of colonies in the mixture: 90%
[2]; at either 1% or 5%
  Sensitivity of Staph. epidermidis (in words): neither C. striatum nor Staph. epidermidis was susceptible
[3]; 12.0 mM arginine bicarbonate, CIL and phenylalanine, 37° C., 4 hours
  pH maintained: about 8.0
[3]; medium originally at pH 6.0
  pH after incubation: 6.8
[3]; medium originally at pH 7.0
  pH after incubation: 7.8
[3]; medium originally at pH 8.0
  pH after incubation: 8.0
[4]; pH 4.0 to 8.0, 4 hours
  Sulfurous odor and Eh: No sulfurous odor nor corresponding decrease in the Eh

## CC(=O)[O-].CC(=O)[O-].[Zn+2] [Zinc acetate]
[4]; pH 4.0 to 8.0, 4 hours
  Sulfurous odor and Eh: No sulfurous odor nor corresponding decrease in the Eh

## NCC(=O)[O-].NCC(=O)[O-].[Zn+2] [Zinc glycinate, zinc glycinate]
C. striatum (ATCC 43751); 1%, Blood BHI agar
  Sensitivity of C. striatum (in words): not sensitive
C. striatum (ATCC 43751); [6]
  Sensitivity of C. striatum (in words): viability loss; also recorded: sensitive
C. striatum (ATCC 43751); concentration 3%
  Diameter of the zone of growth inhibition, C. striatum: 14 mm
  Partial or complete inhibition, C. striatum: (p)
  Intensity of inhibition of the growth of C. striatum (CS): + ((+) the diameter of inhibition <15 mm)
C. striatum (ATCC 43751); concentration 5%
  Partial or complete inhibition, C. striatum: (p)
  Intensity of inhibition of the growth of C. striatum (CS): ++ ((++) the diameter of inhibition 15-20 mm)
C. striatum (ATCC 43751); [7]
  Diameter of the zone of growth inhibition, C. striatum: 17 mm
[2]; [8]
  Sensitivity of Staph. epidermidis (in words): not sensitive

## N[C@@H](CS)C(=O)O [cysteine]
[5]; 6.0 mM
  Odor released on catabolism: sulfurous odor

## N[C@@H](CSSC[C@H](N)C(=O)O)C(=O)O [cystine]
[5]; 6.0 mM
  Odor released on catabolism: sulfurous odor

## CC(C)C[C@H](N)C(=O)O [leucine]
[5]; 6.0 mM, Staph. saprophyticus, Staph. hominis, Staph. haemolyticus and C. minutissium, 0 to 4 scale
  Foot-web odor score: 2

## CSCC[C@H](N)C(=O)O [methionine]
[5]; 6.0 mM, Staph. epidermidis, Staph. saprophyticus, C. jeikeium, C. minutissium, Brevibacterium epidermidis, P. avidum, P. acne, M. furfur
  Methyl mercaptan-like odor level: mild to moderate

## N[C@@H](Cc1ccccc1)C(=O)O [phenylalanine]
[3]; medium with zinc carbonate, CIL and phenylalanine, between pH 5.0 and 8.0, 4 hours
  Pleasant odor: pleasant odor developed
[3]; phenylalanine added to zinc acetate, CIL, arginine or arginine bicarbonate media, pH 6.5 and 7.0, 4 hour
  Pleasant odor: pleasant odor appeared
[5]; 6.0 mM, C. striatum, Staph. saprophyticus or Staph. hominis
  Odor produced on catabolism (in words): pleasant odor

## OC[C@H]1O[C@@](CO)(O[C@H]2O[C@H](CO)[C@@H](O)[C@H](O)[C@H]2O)[C@@H](O)[C@@H]1O [sucrose]
[5]; 28 mM carbohydrate, start pH 7.0, 37° C., 4 hours, across the bacteria tested
  pH response, lowest pH reached: 4.2

## N[C@@H](Cc1c[nH]c2ccccc12)C(=O)O [tryptophan]
[5]; 6.0 mM, M. luteus and P. acne, 0 to 4 scale
  Indole/skatole odor level: 2

## Zinc arginate
[4]; 12 mM zinc arginate, CIL and phenylalanine, pH 4.0 or 5.0, 4 hours
  Foot odor smell: mild
[4]; 12 mM zinc arginate, CIL and phenylalanine, pH 4.0 to 8.0, 4 hours
  Eh: decreased significantly
[4]; 12 mM zinc arginate, CIL and phenylalanine, pH 4.0 to 8.0, 4 hours, versus control groups
  Sulfurous odor: blocked completely
[4]; 12 mM zinc arginate, CIL and phenylalanine, pH 6.0 or above
  Foot odor generation: disappeared
[4]; C. striatum or the mixture, zinc arginate, CIL and phenylalanine, pH 5.0 to 8.0, 4 hours
  Favorable odor: evident
[4]; Staph. epidermidis alone, zinc arginate, CIL and phenylalanine, 4 hours
  Pleasant flower odor: not detected

## basic zinc carbonate (ZnCO3. 3 Zn(OH)2)
C. striatum (ATCC 43751); 1%, Blood BHI agar
  Sensitivity of C. striatum (in words): not sensitive
C. striatum (ATCC 43751); [6]
  Sensitivity of C. striatum (in words): viability loss; also recorded: sensitive
C. striatum (ATCC 43751); concentration 1%
  Partial or complete inhibition, C. striatum: (p)
  Intensity of inhibition of the growth of C. striatum (CS): ±
C. striatum (ATCC 43751); concentration 3%
  Diameter of the zone of growth inhibition, C. striatum: 14 mm
  Partial or complete inhibition, C. striatum: (p)
  Intensity of inhibition of the growth of C. striatum (CS): + ((+) the diameter of inhibition <15 mm)
C. striatum (ATCC 43751); concentration 5%
  Partial or complete inhibition, C. striatum: (p)
  Intensity of inhibition of the growth of C. striatum (CS): ++ ((++) the diameter of inhibition 15-20 mm)
C. striatum (ATCC 43751); [7]
  Diameter of the zone of growth inhibition, C. striatum: 15 mm
[2]; [8]
  Sensitivity of Staph. epidermidis (in words): not sensitive
[3]; medium with zinc carbonate, CIL and phenylalanine, pH 4.0 to 8.0, 4 hours
  Sulfurous odor: no sulfurous odor was observed
